Test results from PMC8145641 (Cells, 2021).
Converted amounts (≈) assume the structure as drawn. Where two headings read alike, the source gives them in different places.

What was measured:
T. gondii RH-GFP [1] = experiment: Kinetics of T. gondii growth, Assay 1 (intracellular tachyzoites); format: cell-based, Toxoplasma gondii; conditions: for effect on the kinetics of T. gondii growth: Assay 1 and Assay 2, Figure 12
Method: (§1) Kinetics of T. gondii growth: The effect of 12b and drugs on kinetics of T. gondii RH-GFP growth was performed as follows: 1 × 10^4 per well of Hs27 cells were seeded on black, 96-well, tissue culture-treated plates with optical bottoms in DMEM cell culture medium.
Assay 1—After 72 h of incubation, the medium was removed and then 1 × 10^5 per well of tachyzoites of the RH strain were added to the cell monolayers, in DMEM without phenol red with 3% HIFBS. One hour later, the compound 12b and drugs dilutions in the DMEM without phenol red medium were added to the Hs27 cells with T. gondii.
(§2) The plates were read with covered lids, and both excitation (475 nm) and emission (509 nm) from the bottom using multimode microplate reader SpectraMax® i3. Additionally, fluorescence measurement was performed every 24 h. The plates were incubated at 37 °C with 5% of CO2. The results were expressed as mean fluorescent intensity (MFI). The initial value for 1 × 10^5 of T. gondii RH-GFP was 37,000 MFI (log 4.57). The lower limit of detection was 1000 MFI (log 3.0). Data presented as a logarithm of mean fluorescence intensity (logMFI) on concentration and time dependent curves. All experiments were performed in triplicate.

[2] = test system: Hs27 (human foreskin fibroblast); experiment: Cytotoxicity assay (MTT); format: cell-based; conditions: 24 h treatment
[3] = test system: tachyzoites of the RH-GFP strain; experiment: Influence of compounds during Toxoplasma growth, Assay A (invasion); format: cell-based, Toxoplasma gondii
Method: (§3) Influence of Compounds during Toxoplasma Growth (Assay A and B): Hs27 cells were cultured on Lab-Tek™ 4-well Chamber Slides (Nunc, Thermo Fisher Scientific, Waltham, MA, USA) (5 × 10^4 cells/500 μL per well).
Assay A—after 48 h, the medium was removed and then 5 × 10^5/500 µL/well tachyzoites of the RH-GFP strain were added to the cell monolayers, in parasite culture medium with the selected compounds at IC50 concentration: 2b, 5b, 8b, 11b or 12b, for 3 h. Then, the cells were washed to remove extracellular parasites and parasite culture medium (without any compounds) was added for 24 h.
(§4) In both assays as the controls, Hs27 cells were infected, but not treated. After subsequent 24 h of incubation (Assay A and B), the slides were washed with sterile PBS, fixed with formaldehyde solution (252549, Sigma-Aldrich), 3.7% in PBS for 20 min and stained with DAPI for 10 min (1 mg/mL, ThermoFisher Scientific). Microscopic analysis of 100 cells in turn, comprised of counting the infected cell ratio and tachyzoites per each parasitophorous vacuoles of infected cell, was performed using a fluorescent microscope (Axio Scope.A1, Carl Zeiss, Jena, Germany) at a magnification ×1000. For image processing ZEISS ZEN Microscope Software version 3.1 was used. Three independent experiments on triplicate chamber slides using the same conditions for both assays were performed.

[4] = test system: tachyzoites of the RH-GFP strain; experiment: Influence of compounds during Toxoplasma growth, Assay B (intracellular proliferation); format: cell-based, Toxoplasma gondii; conditions: 3 h infection without compound, washed, 24 h with compound at IC50
Method: as §3
Assay B—after 48 h, the medium was removed and then 5 × 10^5/500 µL/well tachyzoites of the RH-GFP strain were added to the cell monolayers, in parasite culture medium for 3 h.
as §4

T. gondii RH-GFP [5] = experiment: microbe, parasite or virus in culture; format: cell-based, Toxoplasma gondii
Method: Cell and parasite culture: The Hs27 (human foreskin fibroblast) (ATCC® CRL-1634™) (ATCC, Manassas, VA, USA) were culturing in DMEM (Dulbecco’s modified Eagle’s medium-ATCC® 30-2002™, ATCC) supplemented with 10% fetal bovine serum (fetal bovine serum, ATCC® 30-2020™, ATCC), 100 I.U./mL penicillin and 100 μg/mL streptomycin (penicillin-streptomycin solution ATCC® 30-2300™, ATCC). Cells were trypsinized (Trypsin-EDTA Solution ATCC® 30-2101™, ATCC) twice a week and seeded at a density of 1 × 10^6 per T25 cell culture flask and incubated in a 37 °C and 5% CO2 to achieve a confluent monolayer. The RH strain of Toxoplasma gondii (RH-GFP ATCC® 50940™, ATCC, highly virulent, haplogroup first, expression of green fluorescent protein) was maintained as tachyzoites, in parasite culture medium, which contains DMEM medium with 3% HIFBS (heat-inactivated FBS; 1 h in 56 °C). Infected tissue culture cells were incubated in a 37 °C and 5% CO2.
After 72 h of incubation, the medium was removed and then 1 × 10^5 per well of tachyzoites of the RH strain were added to the cell monolayers, in DMEM without phenol red with 3% HIFBS. One hour later, the compounds and drugs dilutions in the DMEM without phenol red medium were added to the Hs27 cells with T. gondii. Concentration of the compounds below cytotoxic concentration (<CC30), sulfadiazine 0–10,000 μM and trimethoprim, pyrimethamine and atovaquone 0–200 μM. After a subsequent 96 h of incubation, the plates were read with covered lids, and both excitation (475 nm) and emission (509 nm) from the bottom using multimode microplate reader SpectraMax® i3. The results were expressed as mean fluorescent intensity (MFI) and transformed to the percentage of viability compared to untreated cells. Finally, the inhibitory concentrations for 50% inhibition of T. gondii proliferation (IC50) were calculated. All experiments were performed in triplicate.
Graphs and statistical analyses: Statistical analyses and graphs were performed using GraphPad Prism version 9.0.0 for macOS (GraphPad Software, San Diego, CA, USA). […] Additionally, a relationship between cytotoxicity and antiparasitic activity were calculated as the ratio of the 30% cytotoxic concentration (CC30) to the 50% antiparasitic concentration (IC50) and presented as the selectivity index (SI).

T. gondii RH-GFP [6] = experiment: Kinetics of T. gondii growth, Assay 2 (pre-incubated extracellular tachyzoites); format: cell-based, Toxoplasma gondii; conditions: 24 h after infection
Method: as §1
Assay 2—After 72 h of incubation, the medium was removed and DMEM without phenol red with 3% HIFBS, was added. In the new 96-well, tissue culture-treated plates 2 × 10^5 per well of tachyzoites of the RH strain were added and treated for 3, and 6 h with the compound 12b and drugs (diluted in the DMEM without phenol red medium) at 37 °C. Then tachyzoites were wash out three times in DPBS, resuspended in DMEM without phenol red medium with 3% HIFBS, and finally 1 × 10^5 per well of tachyzoites were added to the Hs27 cells.
as §2, with “All experiments were performed in triplicate.” left out

T. gondii = conditions: values from the earlier paper; ref [25]; cited from earlier work
[7] = compared to non-treated host cells, compound at IC50 concentration, assay not named in abstract
[8] = compound at IC50 present 3 h during infection, washed, 24 h free medium, vs non-treated
[9] = ratio of CC30 (Hs27) to IC50 (T. gondii); 1b–12b and positive controls
[10] = Toxoplasma gondii, HS27, 96 h, read-out: IC50 (50% inhibition of T. gondii proliferation)

| Compound | inhibition at 250 µM (T. gondii RH-GFP [1]; Toxoplasma gondii, Assay 1, 250 µM (95.50 µg/mL), first 24 h post-infection, maintained for the next 72 h) [%] | CC30 (cytotoxic concentration causing 30% of cells proliferation inhibition) [2] [µg/mL] | reduction in number of tachyzoites per vacuole [3, 7] [%] | reduction in the percentage of infected host cells [3, 7] [%] | number of tachyzoites per vacuole (Assay A) [3, 8] | percentage of infected cells (Assay A) [3, 8] | number of intravacuolar tachyzoites (Assay B) [4] | percentage of infected cells (Assay B) [4] | size of parasitophorous vacuole (Assay B) [4] | IC50 (T. gondii RH-GFP [5]; Toxoplasma gondii, HS27, 96 h; read-out: IC50 (50% inhibition of T. gondii proliferation)) [µg/mL] | SI (selectivity index, CC30/IC50) (T. gondii RH-GFP [5]; [9]) | reduction of the number of newly formed parasites in Hs27 host cells (T. gondii RH-GFP [6]; 3 h pre-incubation of tachyzoites) [%] | reduction of the number of newly formed parasites in Hs27 host cells (T. gondii RH-GFP [6]; 6 h pre-incubation of tachyzoites) [%] | effect on the kinetics of T. gondii growth (T. gondii RH-GFP [1]) | IC50 (50% inhibition of T. gondii proliferation) (T. gondii) [µg/mL] | IC50 (T. gondii RH-GFP [5]; [10]) [µg/mL] |
| --- | --- | --- | --- | --- | --- | --- | --- | --- | --- | --- | --- | --- | --- | --- | --- | --- |
| Cc1nc[nH]c1-c1nnc(Nc2ccc(I)cc2)s1 [12b] | 97 | 98.18 | 93 | 44 | significant reductions | significant reductions | significant reduction | still the same | significant reduction | 4.7 (≈ 12.3 µM) | 20.89 | 80 | 89 |  |  |  |
| Nc1ccc(S(=O)(=O)Nc2ncccn2)cc1 [Sulfadiazine (SUL), Sulfadiazine, reference compound] |  | 2230.61 |  |  |  |  |  |  |  |  | 1.78 |  |  | only moderately slow down the proliferation of tachyzoites | 2721.45 | 1250 (≈ 5010 µM) |
| COc1cc(Cc2cnc(N)nc2N)cc(OC)c1OC [Trimethoprim (TRI), Trimethoprim, reference compound] |  | 17.78 |  |  |  |  |  |  |  |  | 1.20 |  |  | only moderately slow down the proliferation of tachyzoites | 12.13 | 14.8 (≈ 50.9 µM) |
